Source: ChEMBL document CHEMBL1201862, “PubChem BioAssay data set” (2004)
Active and inactive are the calls of the source. Cut-off read from the data, not from the text of the source: actives have a measured IC50 and inactives only a lower limit.

Molecular target: Envelope glycoprotein gp160 (Human immunodeficiency virus 1, UniProt Q6QLK5)
Experiment: cell-free HIV fusion peptide-binding blockers – biochemical, uHTS, fluorescence dequenching, […] (AID 1986)

Chain of Envelope glycoprotein gp160 (Q6QLK5 whole entry, the tested form may be a part): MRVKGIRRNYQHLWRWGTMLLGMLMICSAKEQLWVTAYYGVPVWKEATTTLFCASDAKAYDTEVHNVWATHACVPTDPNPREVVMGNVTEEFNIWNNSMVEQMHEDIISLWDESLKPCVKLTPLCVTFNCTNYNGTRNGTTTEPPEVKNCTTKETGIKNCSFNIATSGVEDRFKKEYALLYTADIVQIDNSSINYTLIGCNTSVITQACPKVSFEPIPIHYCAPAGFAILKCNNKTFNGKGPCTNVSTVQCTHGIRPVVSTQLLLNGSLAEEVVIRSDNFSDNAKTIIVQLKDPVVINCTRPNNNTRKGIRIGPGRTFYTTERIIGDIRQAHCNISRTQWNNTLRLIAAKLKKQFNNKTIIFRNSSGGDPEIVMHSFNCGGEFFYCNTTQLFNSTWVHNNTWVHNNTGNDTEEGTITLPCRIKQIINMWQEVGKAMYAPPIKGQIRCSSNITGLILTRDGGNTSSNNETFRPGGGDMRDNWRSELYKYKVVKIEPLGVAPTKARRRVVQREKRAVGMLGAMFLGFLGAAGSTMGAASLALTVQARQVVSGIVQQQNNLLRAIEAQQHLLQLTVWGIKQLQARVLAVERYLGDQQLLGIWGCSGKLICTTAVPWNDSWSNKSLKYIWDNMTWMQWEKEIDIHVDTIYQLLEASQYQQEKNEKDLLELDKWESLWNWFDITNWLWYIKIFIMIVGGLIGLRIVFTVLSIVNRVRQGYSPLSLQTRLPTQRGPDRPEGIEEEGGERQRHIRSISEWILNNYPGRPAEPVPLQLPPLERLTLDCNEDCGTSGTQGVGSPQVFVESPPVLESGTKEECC

Row | Structure (SMILES) | IC50
1 | Cc1ccc(/C=C2\SC(=S)N(CCCC(=O)Nc3ccccc3C(=O)O)C2=O)cc1 | 27.8 µM (active)
2 | CS(=O)(=O)C1=NSC2=NC(=O)/C(=C\c3ccc(OC(=O)c4ccco4)c(Br)c3)C(=N)N21 | 16 µM (active)
